From patent US4686220A, “Substituted 2-[b-substituted-amino)-ethylamino]-1,4-naphthalenediones for treating asthma, allergic diseases and inflammation in warm-blooded animals” (American Cyanamid Company, priority 1985, dated 1987)
Structures can show the parent of a compound that is named as a salt. Where two headings read alike, the source gives them in different places.

Target: T1, Neutrophil Lipoxygenase (Cavia porcellus, UniProt A0A286X958)
T1 construct: endogenous in cells; host or cells: guinea pig peritoneal neutrophils
T1 sequence (A0A286X958 1-674): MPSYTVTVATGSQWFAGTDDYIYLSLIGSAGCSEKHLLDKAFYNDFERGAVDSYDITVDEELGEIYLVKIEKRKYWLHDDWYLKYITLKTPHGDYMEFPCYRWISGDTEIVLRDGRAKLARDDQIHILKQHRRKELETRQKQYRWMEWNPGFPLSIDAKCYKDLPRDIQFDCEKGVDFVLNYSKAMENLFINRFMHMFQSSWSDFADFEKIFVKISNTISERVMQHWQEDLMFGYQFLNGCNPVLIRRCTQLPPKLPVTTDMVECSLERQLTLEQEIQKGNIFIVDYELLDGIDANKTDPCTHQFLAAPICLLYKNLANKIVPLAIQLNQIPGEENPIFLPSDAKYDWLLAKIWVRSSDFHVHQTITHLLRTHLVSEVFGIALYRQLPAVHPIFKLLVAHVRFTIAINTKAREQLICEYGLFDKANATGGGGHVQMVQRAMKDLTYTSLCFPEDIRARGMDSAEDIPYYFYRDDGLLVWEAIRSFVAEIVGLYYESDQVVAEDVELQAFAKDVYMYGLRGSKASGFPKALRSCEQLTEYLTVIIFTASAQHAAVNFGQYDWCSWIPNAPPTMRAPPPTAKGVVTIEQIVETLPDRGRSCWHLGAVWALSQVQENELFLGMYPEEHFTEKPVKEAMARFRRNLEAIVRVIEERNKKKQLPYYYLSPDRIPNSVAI
Experiment: Inhibition of Neutrophil Lipoxygenase from Immunologically Stimulated Guinea Pig Neutrophiles (LTB4 and 5-HETE)
Format: cell-based
Conditions: 10 μg/ml, 100 μM arachidonic acid and 20 μM A23187, the lower the percentage, the more active
Description: In this assay 3×10^7 peritoneal neutrophils derived from guinea pigs were incubated at 37° C. in Dulbeccos buffer containing 50 mM tris buffer (pH 7.4). Five minutes before the addition of 100 μM arachidonic acid and 20 μM calcium ionophore (A23187), control vehicle or the test compounds were added to the neutrophils at a concentration of 10 μg/ml. Three minutes after the addition of arachidonic acid and calcium ionophore the total lipid was partitioned into chloroform after adjusting the pH to 3 with citric acid and the addition of equal parts of methanol and chloroform. The 5-HETE and LTB4 were resolved by HPLC using a 5 μM, 4×25 cm octadecyl silica column (IBM Instruments) with 70-80% methanol in water adjusted to pH 3.0 with acetic acid. As the mobile phase was pumped at 1.0 ml/minute, LTB4 and 5-HETE were detected by absorbance at 270 and 236 nm, respectively. LTB4 and 5-HETE were quantitated by comparison with the control and the results were expressed as a percent of control.

Row | Compound | remaining activity at 10 µg/mL (read-out: 5-HETE, % of Control) | remaining activity at 10 µg/mL (read-out: LTB4, % of Control)
1 | O=C1C(Cl)=C(N2CCN(c3ccc4ccccc4n3)CC2)C(=O)c2ccccc21 [Example 10, 2-chloro-3-[4-(2-quinolinyl)-1-piperazinyl]-1,4-naphthalenedione, hydrochloride] | 0% | 0%
2 | O=C1C(Cl)=C(N2CCN(Cc3ccc4c(c3)OCO4)CC2)C(=O)c2ccccc21 [Example 11, 2-[4-(1,3-benzodioxol-5-ylmethyl)-1-piperazinyl]-3-chloro-1,4-naphthalenedione, hydrochloride] | 0% | 0%
3 | O=C1C(Cl)=C(N2CCN(c3ncccn3)CC2)C(=O)c2ccccc21 [Example 12, 2-chloro-3-[4-(2-pyrimidinyl)-1-piperazinyl]-1,4-naphthalenedione] | 34.3% | –
4 | CC(=O)NC1=C(N2CCN(c3nc4ccccc4s3)CC2)C(=O)c2ccccc2C1=O [Example 23, N-[3-[4-(2-benzothiazolyl)-1-piperazinyl]-1,4-dihydro-1,4-dioxo-2-naphthalenyl]acetamide] | 0% | 0%
5 | CC(=O)NC1=C(N2CCN(c3cccc(C(F)(F)F)c3)CC2)C(=O)c2ccccc2C1=O [Example 28, N-[1,4-dihydro-1,4-dioxo-3-[4-[3-(trifluoromethyl)phenyl]-1-piperazinyl]-2-naphthalenyl]acetamide] | 0.3% | –
6 | O=C1C(Cl)=C(N2CCN(C(=O)Nc3ccccc3Cl)CC2)C(=O)c2ccccc21 [Example 29, 4-(3-Chloro-1,4-dihydro-1,4-dioxo-2-naphthalenyl)-N-(2-chlorophenyl)-1-piperazinecarboxamide] | 19.9% | 22.2%
7 | O=C1C(Cl)=C(N2CCN(C(=O)Nc3ccccc3F)CC2)C(=O)c2ccccc21 [Example 30, 4-(3-chloro-1,4-dihydro-1,4-dioxo-2-naphthalenyl)-N-(2-fluorophenyl)-1-piperazinecarboxamide] | 2% | 0%
8 | O=C1C(Cl)=C(N2CCN(C(=O)Nc3cccc(C(F)(F)F)c3)CC2)C(=O)c2ccccc21 [Example 31, 4-(3-chloro-1,4-dihydro-1,4-dioxo-2-naphthalenyl)-N-[3-(trifluoromethyl)phenyl]-1-piperazinecarboxamide] | 0% | –
9 | O=C1C(Cl)=C(N2CCN(C(=O)Nc3ccc(Cl)cc3)CC2)C(=O)c2ccccc21 [Example 32, 4-(3-chloro-1,4-dihydro-1,4-dioxo-2-naphthalenyl)-N-(4-chlorophenyl)-1-piperazinecarboxamide] | 1.4% | –
10 | CCCCc1ccc(C(=O)N2CCN(C3=C(Cl)C(=O)c4ccccc4C3=O)CC2)cc1 [Example 35, 1-(4-butylbenzoyl)-4-(3-chloro-1,4-dihydro-1,4-dioxo-2-naphthalenyl)piperazine] | 13.7% | 23.2%
11 | CCOC(=O)N1CCN(C2=C(C)C(=O)c3ccccc3C2=O)CC1 [Example 41, 4-(1,4-Dihydro-3-methyl-1,4-dioxo-2-naphthalenyl)-1-piperazinecarboxylic acid, ethyl ester] | 2.2% | –
12 | CC1=C(N2CCN(c3nc4ccccc4s3)CC2)C(=O)c2ccccc2C1=O [Example 42, 2-[4-(2-benzothiazolyl)-1-piperazinyl]-3-methyl-1,4-naphthalenedione] | 0.8% | 20.8%
13 | CC1=C(N2CCN(Cc3ccccc3)CC2)C(=O)c2ccccc2C1=O [Example 43, 2-methyl-3-[4-(phenylmethyl)-1-piperazinyl]-1,4-naphthalenedione] | 0.7% | 4.8%
14 | CC1=C(N2CCN(c3ccccn3)CC2)C(=O)c2ccccc2C1=O [Example 44, 2-methyl-3-[4-(2-pyridinyl)-1-piperazinyl]-1,4-naphthalenedione] | 0% | 0%
15 | CC1=C(N2CCN(c3cccc(C(F)(F)F)c3)CC2)C(=O)c2ccccc2C1=O [Example 45, 2-methyl-3-[4-[3-(trifluoromethyl)phenyl]-1-piperazinyl]-1,4-naphthalenedione] | 0% | –
16 | O=C1C(Cl)=C(N2CCCN(c3nc4ccccc4s3)CC2)C(=O)c2ccccc21 [Example 52, 2-[4-(2-Benzothiazolyl)hexahydro-1H-diazepin-1-yl]-3-chloro-1,4-naphthalenedione] | 1.1% | –
17 | CC1=C(N2CCN(C(=O)Nc3ccc(Cl)cc3)CC2)C(=O)c2ccccc2C1=O [Example 54, N-(4-Chlorophenyl)-4-(1,4-dihydro-3-methyl-1,4-dioxo-2-naphthalenyl)-1-piperazinecarboxamide] | 8.8% | –
18 | O=C1C(Cl)=C(N2CCN(c3nc4ccccc4o3)CC2)C(=O)c2ccccc21 [Example 55, 2-[4-(2-Benzoxazolyl)-1-piperazinyl]-3-chloro-1,4-naphthalenedione] | 19.6% | 13.5%
19 | CC1CN(C2=C(Cl)C(=O)c3ccccc3C2=O)CCN1C(=O)Nc1cccc(Cl)c1 (stereo not drawn) [Example 58, 4-(3-Chloro-1,4-dihydro-1,4-dioxo-2-naphthalenyl)-N-(3-chlorophenyl)-2-methyl-1-piperazinecarboxamide] | 25.7% | 15.2%
